Measured values as given in patent US8927500B2, “Peptidomimetic macrocycles” (Aileron Therapeutics, Inc., priority 2012, dated 2015).
Where a SMILES comes first, the peptide text is derived from it. Bridges are numbered along the chain shown (N, C = ends). [ ]: non-standard residue; d: D form. R8 = C=CCCCCCC[C@@](C)(N)C(=O)O; Cba = N[C@@H](CC1CCC1)C(=O)O; S5 = C=CCCC[C@](C)(N)C(=O)O; Nle = CCCC[C@H](N)C(=O)O; Aib = CC(C)(N)C(=O)O

How the values were obtained:
SJSA-1 cells = test: Cell lysis by peptidomimetic macrocycles (LDH release); format: cell-based; conditions: 1 h at 37C
Caspase 3 = Caspase 3 detection assay in SJSA1 cells; format: cell-based; conditions: 48 h, Caspase 3 activation over DMSO-treated cells; for caspase 0.3 uM: 0.3 uM peptide; for caspase 3 uM: 3 uM peptide; for caspase 10 uM: 10 uM peptide; for caspase 30 uM: 30 uM peptide
MDM2 = MDM2 (Homo sapiens, UniProt Q00987); test: Competitive fluorescence polarization assay for MDM2; format: binding; conditions: competitive FP assay, MDM2; for IC50: read-out: IC50 (MDM2); for Ki: read-out: Ki (MDM2)
MDMX = target: T1, MDMX (Homo sapiens, UniProt O15151); test: Competitive fluorescence polarization assay for MDMX; format: binding; conditions: competitive FP assay; for IC50: read-out: IC50 (MDMX); for Ki: read-out: Ki (MDMX)
T1 sequence (O15151 1-125): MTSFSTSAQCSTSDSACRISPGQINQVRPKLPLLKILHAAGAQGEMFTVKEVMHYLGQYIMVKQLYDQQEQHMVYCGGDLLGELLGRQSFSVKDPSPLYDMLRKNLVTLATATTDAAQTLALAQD
Protocol: Dilute MDMX (In-house, 40 kD) into FP buffer (High salt buffer-200 mM Nacl, 5 mM CHAPS, pH 7.5.) to make 300 nM (2×) working stock solution. • 2. […] Dilute 1 mM (in 100% DMSO) of FAM labeled linear peptide with DMSO to 100 μM (dilution 1:10). Then, dilute from 100 μM to 10 μM with water (dilution 1:10) and then dilute with FP buffer from 10 μM to 40 nM (dilution 1:250). This is the working solution which will be a 10 nM concentration in well (dilution 1:4). Keep the diluted FAM labeled peptide in the dark until use. • 4. […] Dilute 10 mM (in 100% DMSO) with DMSO to 5 mM (dilution 1:2). Then, dilute from 5 mM to 500 μM with H2O (dilution 1:10) and then dilute with FP buffer from 500 μM to 20 μM (dilution 1:25). […] Transfer 10 μl of serial diluted unlabeled peptides to each well which is filled with 20 μl of 300 nM of protein. • 7. Add 10 μl of 10 nM (4×) of FAM labeled peptide into each well and incubate for 3 hr to read.

Chain of MDM2 (Q00987 1-125): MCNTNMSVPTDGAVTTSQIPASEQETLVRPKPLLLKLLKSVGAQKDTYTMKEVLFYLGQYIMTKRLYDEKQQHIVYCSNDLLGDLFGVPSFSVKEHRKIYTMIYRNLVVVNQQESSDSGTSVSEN

Compound | IC50 (MDM2) [nM] | Ki (MDM2) [nM] | IC50 (MDMX) [nM] | Ki (MDMX) [nM] | 6.25 uM % Lysed cells (1 h LDH) (SJSA-1 cells) [%] | 25 uM % Lysed cells (1 h LDH) (SJSA-1 cells) [%] | 50 uM % Lysed cells (1 h LDH) (SJSA-1 cells) [%] | caspase 0.3 uM (Caspase 3) | caspase 3 uM (Caspase 3) | caspase 10 uM (Caspase 3) | caspase 30 uM (Caspase 3)
CC[C@H](C)[C@H](NC(=O)[C@H](C)NC(=O)[C@H](C)NC(=O)[C@]1(C)CCCC=CCCCCCC[C@@](C)(NC(=O)[C@H](Cc2ccccc2)NC(=O)[C@@H](NC(=O)[C@H](CC(C)C)NC(C)=O)[C@@H](C)O)C(=O)N[C@@H](C)C(=O)N[C@@H](Cc2ccc(O)cc2)C(=O)N[C@@H](Cc2c[nH]c3ccccc23)C(=O)N[C@@H](C)C(=O)N[C@@H](CCC(N)=O)C(=O)N[C@@H](CC(C)C)C(=O)N1)C(=O)N[C@H](CC(C)C)C(N)=O (single isomer, unassigned) [compound 82] | – | – | – | – | 0 | 0 | 1 | – | – | – | –
CC(=O)N[C@@H](CC(C)C)C(=O)N[C@H](C(=O)N[C@@H](Cc1ccccc1)C(=O)N[C@]1(C)CCCCCCC=CCCC[C@@](C)(C(=O)N[C@@H](C)C(=O)N[C@H](C(=O)NCC(N)=O)C(C)C)NC(=O)[C@H](CC(C)C)NC(=O)[C@H](CCC(N)=O)NC(=O)[C@H](C)NC(=O)[C@H](Cc2c[nH]c3ccccc23)NC(=O)[C@H](Cc2ccc(O)cc2)NC(=O)[C@H](C)NC1=O)[C@@H](C)O (single isomer, unassigned) [compound 108] | – | – | – | – | 0 | 0 | 1 | – | – | – | –
CC[C@H](C)[C@H](NC(=O)[C@H](C)NC(=O)[C@H](C)NC(=O)[C@]1(C)CCCC=CCCCCCC[C@@](C)(NC(=O)[C@H](Cc2ccccc2)NC(=O)[C@@H](NC(=O)[C@H](CCC(=O)O)NC(C)=O)[C@@H](C)O)C(=O)N[C@@H](CCC(=O)O)C(=O)N[C@@H](Cc2c[nH]cn2)C(=O)N[C@@H](Cc2c[nH]c3ccccc23)C(=O)N[C@@H](C)C(=O)N[C@@H](CCC(N)=O)C(=O)N[C@@H](CC(C)C)C(=O)N1)C(=O)N[C@H](C)C(N)=O (single isomer, unassigned) [compound 174] | – | – | – | – | 5 | 2 | 5 | – | – | – | –
CC[C@H](C)[C@H](NC(=O)[C@H](C)NC(=O)[C@H](C)NC(=O)[C@]1(C)CCCC=CCCCCCC[C@@](C)(NC(=O)[C@H](Cc2ccccc2)NC(=O)[C@@H](NC(=O)[C@H](CC(C)C)NC(C)=O)[C@@H](C)O)C(=O)N[C@@H](CCC(=O)O)C(=O)N[C@@H](Cc2ccc(C(=O)O)cc2)C(=O)N[C@@H](Cc2c[nH]c3cc(Cl)ccc23)C(=O)N[C@@H](C)C(=O)N[C@@H](CCC(N)=O)C(=O)N[C@@H](CC2CCC2)C(=O)N1)C(=O)N[C@H](C)C(N)=O (single isomer, unassigned) [compound 335] | – | – | – | – | 0 | 0 | 1 | – | – | – | –
CC(=O)N[C@@H](CCC(=O)O)C(=O)N[C@H](C(=O)N[C@@H](Cc1ccccc1)C(=O)N[C@]1(C)CCCCCCC=CCCC[C@@](C)(C(=O)N[C@@H](C)C(=O)N[C@@H](C)C(=O)N[C@@H](C)C(=O)N[C@@H](C)C(=O)N[C@@H](C)C(=O)N[C@H](C)C(N)=O)NC(=O)[C@H](CC(C)C)NC(=O)[C@H](CCC(N)=O)NC(=O)[C@H](C)NC(=O)[C@H](Cc2c[nH]c3ccccc23)NC(=O)[C@H](Cc2ccc(O)cc2)NC(=O)[C@H](CCC(=O)O)NC1=O)[C@@H](C)O (single isomer, unassigned) [compound 340] | – | – | – | – | 0 | 0 | 0 | – | – | – | –

The next lines start with results.

IC50 (MDM2) [nM] | Ki (MDM2) [nM] | IC50 (MDMX) [nM] | Ki (MDMX) [nM] | Compound | 6.25 uM % Lysed cells (1 h LDH) (SJSA-1 cells) [%] | 25 uM % Lysed cells (1 h LDH) (SJSA-1 cells) [%] | 50 uM % Lysed cells (1 h LDH) (SJSA-1 cells) [%] | caspase 0.3 uM (Caspase 3) | caspase 3 uM (Caspase 3) | caspase 10 uM (Caspase 3) | caspase 30 uM (Caspase 3)
100 to 1000 | 10 to 100 | 100 to 1000 | 10 to 100 | CC(=O)N[C@@H](CC(C)C)C(=O)N[C@H](C(=O)N[C@@H](Cc1ccccc1)C(=O)N[C@]1(C)CCCCCCC=CCCC[C@@](C)(C(=O)N[C@@H](CO)C(=O)N[C@@H](C)C(=O)NC(C)(C)C(N)=O)NC(=O)[C@H](CC(C)C)NC(=O)[C@H](CCC(N)=O)NC(=O)[C@H](C)NC(=O)[C@H](Cc2c[nH]c3ccccc23)NC(=O)[C@H](Cc2ccc(O)cc2)NC(=O)[C@H](C)NC1=O)[C@@H](C)O [compound 10] (Ac-LTF[R8]AYWAQL[S5]SA[Aib]-NH2; staple 4-11) | – | – | – | 1 | 1 | 17 | 32
10 to 100 | < 10 | 100 to 1000 | 10 to 100 | CC(=O)N[C@@H](CC(C)C)C(=O)N[C@H](C(=O)N[C@@H](Cc1ccccc1)C(=O)N[C@]1(C)CCCCCCC=CCCC[C@@](C)(C(=O)N[C@@H](C)C(=O)N[C@@H](Cc2c[nH]cn2)C(=O)N[C@@H](Cc2ccccc2)C(=O)N[C@@H](C)C(N)=O)NC(=O)[C@H](CC(C)C)NC(=O)[C@H](CCC(N)=O)NC(=O)[C@H](C)NC(=O)[C@H](Cc2c[nH]c3ccccc23)NC(=O)[C@H](Cc2ccc(O)cc2)NC(=O)[C@H](C)NC1=O)[C@@H](C)O [compound 50] (Ac-LTF[R8]AYWAQL[S5]AHFA-NH2; staple 4-11) | – | – | – | – | 8 | 29 | 29
< 10 | < 10 | 100 to 1000 | 10 to 100 | CC(=O)N[C@@H](CCC(=O)O)C(=O)N[C@H](C(=O)N[C@@H](Cc1ccccc1)C(=O)N[C@]1(C)CCCCCCC=CCCC[C@@](C)(C(=O)N[C@@H](CO)C(=O)N[C@@H](CC(C)C)C(=O)N[C@@H](C)C(N)=O)NC(=O)[C@H](CC(C)C)NC(=O)[C@H](CCC(N)=O)NC(=O)[C@H](C)NC(=O)[C@H](Cc2c[nH]c3ccccc23)NC(=O)[C@H](Cc2ccc(O)cc2)NC(=O)[C@H](C(C)C)NC1=O)[C@@H](C)O [compound 127] (Ac-ETF[R8]VYWAQL[S5]SLA-NH2; staple 4-11) | – | – | – | 1 | 1 | 4 | 13
10 to 100 | < 10 | 10 to 100 | 10 to 100 | CCCC[C@H](NC(=O)[C@H](C)NC(=O)[C@H](C)NC(=O)[C@]1(C)CCCC=CCCCCCC[C@@](C)(NC(=O)[C@H](Cc2ccccc2)NC(=O)[C@@H](NC(=O)[C@H](CC(C)C)NC(C)=O)[C@@H](C)O)C(=O)N[C@@H](CCC(=O)O)C(=O)N[C@@H](Cc2ccc(O)cc2)C(=O)N[C@@H](Cc2c[nH]c3ccccc23)C(=O)N[C@@H](C)C(=O)N[C@@H](CCC(N)=O)C(=O)N[C@@H](CC2CCC2)C(=O)N1)C(=O)N[C@@H](C)C(N)=O [compound 238] (Ac-LTF[R8]EYWAQ[Cba][S5]AA[Nle]A-NH2; staple 4-11) | – | – | – | 1 | 2 | 4 | 21
10 to 100 | < 10 | 100 to 1000 | 10 to 100 | CC(=O)N[C@@H](CC(C)C)C(=O)N[C@H](C(=O)N[C@@H](Cc1ccccc1)C(=O)N[C@]1(C)CCCCCCC=CCCC[C@@](C)(C(=O)N[C@@H](CO)C(=O)N[C@@H](C)C(=O)N[C@@H](Cc2ccccc2)C(=O)N[C@@H](C)C(N)=O)NC(=O)[C@H](CC2CCC2)NC(=O)[C@H](CCC(N)=O)NC(=O)[C@H](C)NC(=O)[C@H](Cc2c[nH]c3ccccc23)NC(=O)[C@H](Cc2ccc(O)cc2)NC(=O)[C@H](CCC(=O)O)NC1=O)[C@@H](C)O [compound 242] (Ac-LTF[R8]EYWAQ[Cba][S5]SAFA-NH2; staple 4-11) | – | – | – | 1 | 4 | 5 | 18
